Experimental data from PubChem BioAssay (NCI).
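Cultured in 96-well plates, cells were exposed to test compound for 48 hours across five concentrations. Abbreviation: GI50, concentration required for 50% inhibition of growth. TGI denotes the concentration required for complete inhibition of growth.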

Assays:
Experiment in all cases: DTP human tumour cell line panel, 48 h; in the data active means GI50 below about 0.43 µM; inactive means the rest
[1] = test system: SF-295 CNS
[2] = test system: 786-0 renal
[3] = test system: OVCAR-3 ovarian
[4] = test system: HCT-15 colon
[5] = test system: NCI-H226 lung
[6] = test system: SK-MEL-28 melanoma
[7] = test system: IGROV1 ovarian
[8] = test system: UO-31 renal
[9] = test system: NCI-H23 lung
[10] = test system: NCI-H460 lung
[11] = test system: KM12 colon
[12] = test system: RPMI-8226 leukemia
[13] = test system: MOLT-4 leukemia
[14] = test system: A498 renal
[15] = test system: CAKI-1 renal
[16] = test system: SK-MEL-2 melanoma
[17] = test system: U251 CNS
[18] = test system: CCRF-CEM leukemia
[19] = test system: SF-268 CNS
[20] = test system: MDA-MB-231 breast
[21] = test system: UACC-257 melanoma
[22] = test system: HS 578T breast
[23] = test system: MDA-N
[24] = test system: HCT-116 colon
[25] = test system: NCI-H522 lung
[26] = test system: MDA-MB-435
[27] = test system: HT29 colon
[28] = test system: SK-OV-3 ovarian
[29] = test system: HOP-92 NSCLC
[30] = test system: HL-60(TB) leukemia
[31] = test system: COLO 205 colon
[32] = test system: DU-145 prostate
[33] = test system: PC-3 prostate
[34] = test system: TK-10 renal
[35] = test system: A549 NSCLC
[36] = test system: NCI/ADR-RES ovarian
[37] = test system: K-562 leukemia
[38] = test system: OVCAR-8 ovarian
[39] = test system: SN12C renal
[40] = test system: T-47D breast
[41] = test system: SK-MEL-5 melanoma
[42] = test system: EKVX NSCLC
[43] = test system: HOP-62 NSCLC
[44] = test system: OVCAR-4 ovarian
[45] = test system: SW-620 colon
[46] = test system: ACHN renal
[47] = test system: SNB-19 CNS
[48] = test system: SR leukemia
[49] = test system: LOX IMVI melanoma
[50] = test system: HCC-2998 colon
[51] = test system: SF-539 CNS
[52] = test system: M14 melanoma
[53] = test system: OVCAR-5 ovarian
[54] = test system: RXF 393 renal
[55] = test system: MALME-3M melanoma
[56] = test system: BT-549 breast
[57] = test system: MCF7 breast
[58] = test system: UACC-62 melanoma
[59] = test system: SNB-75 CNS

Cc1cccc2c(=O)c3cccc([C@@H](C)C(=O)O)c3oc12
> 100 µM: TGI [1] | TGI [2] | TGI [3] | TGI [4] | TGI [5] | TGI [6] | TGI [7] | TGI [8] | TGI [9] | TGI [10] | TGI [11] | TGI [12] | TGI [13] | TGI [14] | TGI [15] | TGI [16] | TGI [17] | TGI [18] | TGI [19] | TGI [20] | TGI [21] | TGI [22] | TGI [23] | TGI [24] | TGI [25] | TGI [26] | TGI [27] | TGI [28] | TGI [29] | TGI [30] | TGI [31] | TGI [32] | TGI [33] | TGI [34] | TGI [35] | TGI [36] | TGI [37] | TGI [38] | TGI [39] | TGI [40] | TGI [41] | TGI [42] | TGI [43] | TGI [44] | TGI [45] | TGI [46] | TGI [47] | TGI [48] | TGI [49] | TGI [50] | TGI [51] | TGI [52]

COc1cc(C(=O)Nc2cc(C(N)=O)cc(OC)c2OC)cc(NC(=O)/C=C/c2ccccc2)c1OC
64 µM: TGI [55]
85.6 µM: TGI [39]
> 100 µM: TGI [1] | TGI [53] | TGI [3] | TGI [4] | TGI [6] | TGI [7] | TGI [8] | TGI [9] | TGI [10] | TGI [11] | TGI [12] | TGI [13] | TGI [54] | TGI [18] | TGI [21] | TGI [23] | TGI [25] | TGI [26] | TGI [27] | TGI [28] | TGI [29] | TGI [56] | TGI [30] | TGI [31] | TGI [32] | TGI [33] | TGI [34] | TGI [35] | TGI [36] | TGI [37] | TGI [38] | TGI [57] | TGI [42] | TGI [44] | TGI [45] | TGI [46] | TGI [47] | TGI [48] | TGI [51]
57.5 µM: TGI [20]
35.6 µM: TGI [58]

Cn1cnc([N+](=O)[O-])c1Sc1ncn[nH]1
inactive: GI50 [1] > 100 µM | GI50 [53] > 100 µM | GI50 [2] > 100 µM | GI50 [3] 47.3 µM | GI50 [4] 70.1 µM | GI50 [5] > 100 µM | GI50 [6] > 100 µM | GI50 [7] 40.7 µM | GI50 [8] 35.2 µM | GI50 [9] 99.5 µM | GI50 [10] > 100 µM | GI50 [11] > 100 µM | GI50 [12] 43.9 µM | GI50 [13] > 100 µM | GI50 [54] 29 µM | GI50 [14] > 100 µM | GI50 [15] 30.7 µM | GI50 [16] 40.9 µM | GI50 [17] > 100 µM | GI50 [18] 28.6 µM | GI50 [19] > 100 µM | GI50 [20] > 100 µM | GI50 [21] 68.2 µM | GI50 [22] 52.8 µM | GI50 [24] > 100 µM | GI50 [25] 19.8 µM | GI50 [55] 23.9 µM | GI50 [26] > 100 µM | GI50 [27] > 100 µM | GI50 [28] > 100 µM | GI50 [29] 29.2 µM | GI50 [56] > 100 µM | GI50 [30] 75.5 µM | GI50 [31] 28.4 µM | GI50 [32] 63.4 µM | GI50 [33] > 100 µM | GI50 [34] 98.2 µM | GI50 [59] > 100 µM | GI50 [35] > 100 µM | GI50 [36] > 100 µM | GI50 [37] 32.3 µM | GI50 [38] > 100 µM | GI50 [39] > 100 µM | GI50 [40] 17 µM | GI50 [41] > 100 µM | GI50 [57] > 100 µM | GI50 [42] > 100 µM | GI50 [43] > 100 µM | GI50 [44] 72 µM | GI50 [45] 61.1 µM | GI50 [46] 76.1 µM | GI50 [47] > 100 µM | GI50 [48] 35.1 µM | GI50 [49] > 100 µM | GI50 [50] > 100 µM | GI50 [58] 96.3 µM | GI50 [51] > 100 µM | GI50 [52] > 100 µM
> 100 µM: TGI [1] | TGI [53] | TGI [2] | TGI [3] | TGI [4] | TGI [5] | TGI [6] | TGI [7] | TGI [8] | TGI [9] | TGI [10] | TGI [11] | TGI [12] | TGI [13] | TGI [54] | TGI [14] | TGI [15] | TGI [16] | TGI [17] | TGI [18] | TGI [19] | TGI [20] | TGI [21] | TGI [22] | TGI [24] | TGI [25] | TGI [55] | TGI [26] | TGI [27] | TGI [28] | TGI [29] | TGI [56] | TGI [30] | TGI [31] | TGI [32] | TGI [33] | TGI [34] | TGI [59] | TGI [35] | TGI [36] | TGI [37] | TGI [38] | TGI [39] | TGI [40] | TGI [41] | TGI [57] | TGI [42] | TGI [43] | TGI [44] | TGI [45] | TGI [46] | TGI [47] | TGI [48] | TGI [49] | TGI [50] | TGI [58] | TGI [51] | TGI [52]
